Patent US12358913B2, “Crystal of diarylthiohydantoin compound” (CHIA TAI TIANQING PHARMACEUTICAL GROUP CO., LTD., priority 2019, dated 2025)
Where “and” joins values, the source holds several entries; their conditions need not be identical. Equal entries are not always repeated.

Legend:
[1] = Pharmacokinetic test in male CD-1 mice, plasma by LC/MS/MS; format: in vivo; conditions: mouse, po, intragastric administration, 2 mg/kg
Description: Taking male CD-1 mice as test animals, the drug concentrations in the plasma of the mice at different time points after intravenous and intragastric administration of the compound of formula I were determined by an LC/MS/MS method. This example aims to investigate the pharmacokinetic performance of the compound of formula I in mice and to evaluate the pharmacokinetic characteristics.
2.2 Test Animals: 4 Healthy Adult Male CD-1 Mice, which were Divided into 2 Groups (2 Mice in Each Group) According to the Body Weight. Animals were Purchased from Shanghai Sippe-Bk Lab Animal Co., Ltd., and Animal Production License Number was SCXK (Shanghai) 2013-0016. 2.3 Drug Preparation
An appropriate amount of sample was weighed, and sequentially added with an appropriate amount of DMSO, PEG400 and water according to the volume ratio of 10:40:50, and the mixture was stirred and ultrasonicated to a clear state (0.4 mg/mL) for intravenous administration. […]
LC/MS/MS method was used to determine the content of the test compound in the plasma of mice after intravenous and intragastric administration. The linear range of the method was 2.00-6000 nmol/L; plasma samples were analyzed after treatment with acetonitrile to precipitate proteins.

[2] = Tissue distribution test (plasma and brain) in male CD-1 mice; format: in vivo; conditions: intragastric administration, 2 mg/kg, 4 h
Description: Taking male CD-1 mice as test animals, the drug concentrations in the plasma and brain of the mice after intragastric administration of the compound of formula I were determined by an LC/MS/MS method.
2.2 Test Animals: 2 Healthy Adult Male CD-1 Mice. Animals were Purchased from Shanghai Sippe-Bk Lab Animal Co., Ltd.
An appropriate amount of sample was added into 0.5% CMC/0.2% Tween aqueous solution, and the mixture was stirred and ultrasonicated to a suspension state (0.4 mg/mL).
Two male CD-1 mice, after fasting overnight, were subjected to intragastric administration at a volume of 5 mL/kg and a dosage of 2 mg/kg.
Male CD-1 mice, after intragastric administration of the compound of formula I, were subjected to 100 μL of blood collection by cardiac puncture at 4 h, and the blood was placed in tubes containing 2 μL of EDTA-K2 and centrifuged at 3000 g for 15 min to separate out 30 μL of plasma, which was stored at −60° C. Meanwhile, brain tissues were collected, washed, homogenized with 9-fold 15 mM PBS/MeOH (v: v, 2:1), and stored at −60° C. The animals were allowed to eat 4 h after administration.
LC/MS/MS method was used to determine the content of test compound in the plasma and brain of mice after intragastric administration. The linear range of the method was 2.00-6000 nmol/L; plasma samples were analyzed after treatment with acetonitrile to precipitate proteins.

[3] = test system: human prostate cancer LNCaP-FGC cells; test: In vivo pharmacodynamic study on subcutaneous xenograft tumor model of human prostate cancer LNCaP-FGC cells; parameters: species or system CB-17 SCID mouse; conditions: for Relative tumor proliferation rate T/C / TGI: after 21 days of administration
Description: Human prostate cancer LNCaP-FGC cells (ATCC, Manassas, VA) were cultured in vitro, in a monolayer way, in an RPMI1640 medium containing 10% fetal bovine serum at 37° C. and 5% CO2. Routine digestion treatment with pancreatin-EDTA was performed twice a week for passage. When the saturation degree of the cells is 80-90%, the cells were collected, counted and inoculated.
0.2 mL (10×10^6) of LNCaP-FGC cells (10×10^6+Matrigel, 1:1) were inoculated subcutaneously into the right back of each CB-17 SCID mouse. The mice were divided into groups for administration when the mean tumor volume reached 100-150 mm^3.
Tumor diameters were measured twice weekly using a vernier caliper. The calculation formula for tumor volume was: V=0.5a×b^2, with a and b representing the long and short diameters of the tumor, respectively. The anti-tumor therapeutic effect of the compound was evaluated by TGI (%) or relative tumor proliferation rate T/C (%). TGI (%)=[(1−(average tumor volume of a treatment group at the end of administration−average tumor volume of the treatment group at the start of administration))/(average tumor volume of a vehicle control group at the end of treatment-average tumor volume of the vehicle control group at the start of treatment)]×100%. The calculation formula for relative tumor proliferation rate T/C (%) was as follows: T/C %=TRTV/CRTV×100% (TRTV: RTV of treatment group; CRTV: RTV of negative control group). Relative tumor volume (RTV) was calculated based on the results of tumor measurement. The calculation formula was: RTV=Vt/V0, wherein V0 was the average tumor volume measured at the time of grouping and administration (i.e., d0), Vt was the average tumor volume at a certain measurement, and the data of TRTV and CRTV were obtained on the same day.
Statistical analysis included mean and standard error of mean (SEM) of tumor volume at each time point for each group. […] Comparison between two groups was analyzed using T-test, comparison among three or more groups was analyzed using one-way ANOVA. […] If there was […] in F values, Dunnet (2-sided) method was used for analysis. All data analysis was performed with SPSS 17.0. “P<0.05” was defined as a significant difference.

[4] = Solid stability of the crystal, purity by HPLC; format: physicochemical
Text: References were made to the requirements in the “Guidelines for the Stability Test of APIs and Preparations” (Appendix XIX C of the Volume Two of the Chinese Pharmacopoeia, 2010 Edition) for the conditions and the method for the stability test of the crystal, and the stability of the crystalline solid under conditions of different influence factors was studied with the crystal prepared in Example 2 as a test sample.
High performance liquid chromatography (HPLC): column: Waters xbridge shiled RP18 (150 mm*4.6 mm, 3.5 μm); PN: 186003045; wavelength: 228 nm; mobile phase A: pH 4.5, 5 mmol/L sodium acetate buffer solution (pH adjusted with phosphoric acid); mobile phase B: acetonitrile; elution mode: gradient elution.

[5] = Hygroscopicity by dynamic vapor sorption (DVS); format: physicochemical; conditions: 25±1° C. and 80±2% RH
Description: Instrument model: SMS DVS Advantage
Test conditions: a sample (10-15 mg) of the crystal of the compound of formula I prepared in Example 2 was placed in a DVS sample tray for testing.
The detailed DVS parameters were as follows:
Balancing: dm/dt=0.01%/min (shortest: 10 min, longest: 180 min)
Drying: drying at 0% RH for 120 min
RH (%) test gradient: 10%
Range of RH (%) test gradient: 0%-90%-0%
Note: ΔW % represents the moisture gain of the test compound at 25±1° C. and 80±2% RH.

SMILES	bioavailability [1]	Brain-to-plasma concentration ratio [2]	Concentration in brain [2]	Concentration in plasma [2]	Relative tumor proliferation rate T/C ([3]; 10 mg/kg PO QD)	TGI ([3]; 10 mg/kg PO QD)	Tolerance of the animals to the test compound ([3]; 10 mg/kg and 20 mg/kg PO QD × 21 days)	Relative tumor proliferation rate T/C ([3]; 20 mg/kg PO QD)	TGI ([3]; 20 mg/kg PO QD)	Purity of the crystal (stability) ([4]; 75% RH, 40° C., 1 month)	Purity of the crystal (stability) ([4]; 75% RH, 40° C., 2 months)	Purity of the crystal (stability) ([4]; 75% RH, 40° C., 3 months)	Purity of the crystal (stability) ([4]; 75% RH, 40° C., 10 days)	Purity of the crystal (stability) ([4]; 75% RH, 60° C., 1 day)	Purity of the crystal (stability) ([4]; 75% RH, 60° C., 10 days)	Purity of the crystal (stability) ([4]; 92.5% RH, room temperature, 10 days)	Purity of the crystal (stability) ([4]; Initial test sample)	Purity of the crystal (stability) ([4]; wrapped with tin foil paper, exposed to visible light of 1200000 Lux and UV of 200 W at room temperature)	ΔW % (moisture gain) [5]
CCc1cc(=O)n2cc(N3C(=S)N(c4ccc(C#N)c(Cl)c4)C(=O)C3(C)C)cc(F)c2n1 [Compound of formula I, 2-chloro-4-(3-(2-ethyl-9-fluoro-4-oxo-4H-pyrido[1,2-a]pyrimidin-7-yl)-4,4-dimethyl-5-oxo-2-thioimidazolidin-1-yl)benzonitrile]	68.1%	0.0322	265 nmol/kg	8.26 µM	43.93%	62.75%	good tolerance	32.37%	76.16%	–	–	–	–	–	–	–	–	–	–
CCc1cc(=O)n2cc(N3C(=S)N(c4ccc(C#N)c(Cl)c4)C(=O)C3(C)C)cc(F)c2n1 [crystal of the compound of formula I, 2-chloro-4-(3-(2-ethyl-9-fluoro-4-oxo-4H-pyrido[1,2-a]pyrimidin-7-yl)-4,4-dimethyl-5-oxo-2-thioimidazolidin-1-yl)benzonitrile]	–	–	–	–	–	–	–	–	–	99.17%	99.14%	99.16%	99.15%	99.14%	99.16%	99.18% and 99.14%	99.17%	99.13%	1.018%
